Experimental data as given in patent US9242973B2, “Chromane compounds” (CoMentis, Inc., priority 2012, dated 2016).

Target: BACE1 (Homo sapiens (Human), UniProt P56817)
Test: Test Example 1: BACE1 inhibition by FRET (MCA substrate); IC50 and Ki
Details: read-out: Test Example 1 IC50

Sequence of BACE1 (P56817 75-416): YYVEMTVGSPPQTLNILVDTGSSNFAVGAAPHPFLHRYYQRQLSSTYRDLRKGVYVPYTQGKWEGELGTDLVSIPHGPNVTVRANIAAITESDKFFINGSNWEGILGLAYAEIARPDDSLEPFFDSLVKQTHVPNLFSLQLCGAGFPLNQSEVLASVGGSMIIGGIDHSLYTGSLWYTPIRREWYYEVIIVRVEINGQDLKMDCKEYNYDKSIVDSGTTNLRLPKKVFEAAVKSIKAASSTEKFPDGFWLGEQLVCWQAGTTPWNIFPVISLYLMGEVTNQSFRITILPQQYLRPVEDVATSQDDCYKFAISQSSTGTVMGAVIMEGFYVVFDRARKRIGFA

Point of comparison: CC1(C)Oc2ccc(NC(=O)c3ncc(Cl)cc3F)cc2C2(COC(N)=N2)C12COC2 (centres unmarked) [Example 30], IC50 97.5 nM. Against it:
- CC1(C)Oc2ccc(NC(=O)c3ccc(F)cn3)cc2C2(COC(N)=N2)C12COC2 (centres unmarked) [Example 28] — 1.6-fold higher, 154 nM

Same assay, conditions: read-out: Test Example 1 IC50; FRET, MCA substrate 3 μM, BACE1 65 nM, pH 4.4

Point of comparison: CCCC1Oc2ccc(Br)cc2C2(COC(N)=N2)C12COC2 (single isomer, unassigned) [RP 11a], IC50 15600 nM. Against it:
- CCCC1Oc2ccc(Br)cc2C2(COC(N)=N2)C12COC2 (single isomer, unassigned) [RP 11b] — within 1.5-fold, 17400 nM
- NC1=NC2(CO1)c1cc(NC(=O)c3ccc(Cl)cn3)ccc1OCC21CC1 (centres unmarked) [RP 32] — 37-fold lower, 418 nM

Test system: Aβ production in SK-N-BE(2) neuroblastoma cells
Test: Test Example 3: Aβ production inhibition in cell (Aβ40 ELISA, SK-N-BE(2))
Details: Homo sapiens, SKNBE2, 6 h, read-out: Test Example 3 IC50

Point of comparison: CC1(C)Oc2ccc(NC(=O)c3ncc(Cl)cc3F)cc2C2(COC(N)=N2)C12COC2 (centres unmarked) [Example 30], IC50 2.3 nM. Against it:
- CC1(C)Oc2ccc(NC(=O)c3ccc(F)cn3)cc2C2(COC(N)=N2)C12COC2 (centres unmarked) [Example 28] — 8.3-fold higher, 19 nM

Same assay, conditions: Homo sapiens, SKNBE2, 6 h, read-out: Test Example 3 IC50, SK-N-BE(2) cells, 6 hours, Aβ40 ELISA normalized by viability

Point of comparison: NC1=NC2(CO1)c1cc(-c3cccnc3)ccc1OC1(CCC1)C21COC1 (centres unmarked) [RP 209], IC50 830 nM. Against it:
- NC1=NC2(c3cc(-c4cncnc4)ccc3OCC23CC3)c2cccc(F)c21 (centres unmarked) [RP 199] — 3.5-fold lower, 240 nM
- NC1=NC2(CO1)c1cc(-c3cncnc3)ccc1OC(Cc1ccccc1)C21COC1 (centres unmarked) [RP 200] — 32-fold lower, 26 nM
- CC#Cc1cncc(-c2ccc3c(c2)C2(COC(N)=N2)C2(COC2)C(Cc2ccccc2)O3)c1 (centres unmarked) [RP 201] — 95-fold lower, 8.7 nM
- NC1=NC2(CO1)c1cc(-c3cncnc3)ccc1OC(CC1CC1)C21COC1 (centres unmarked) [RP 204] — 3.5-fold lower, 240 nM
- CC#Cc1cncc(-c2ccc3c(c2)C2(COC(N)=N2)C2(COC2)C(CC2CC2)O3)c1 (centres unmarked) [RP 205] — 38-fold lower, 22 nM
- NC1=NC2(c3cc(-c4cncnc4)ccc3OCC23CC3)C(F)(F)CO1 (centres unmarked) [RP 206] — higher, > 30000 nM
- NC1=NC2(CO1)c1cc(-c3cncnc3)ccc1OCC21CC(F)(F)C1 (centres unmarked) [RP 208] — 7.3-fold higher, 6100 nM
- NC1=NC2(COC1)c1cc(-c3cncnc3)ccc1OCC21CC1 (centres unmarked) [RP 215, 6′-(pyrimidin-5-yl)-6″H-dispiro[cyclopropane-1,3′-chromene-4′,3″-[1,4]oxazin]-5″-amine] — 3.5-fold lower, 240 nM

Target: hERG potassium channel (Homo sapiens (Human), UniProt Q12809)
Sequence (Q12809 whole entry): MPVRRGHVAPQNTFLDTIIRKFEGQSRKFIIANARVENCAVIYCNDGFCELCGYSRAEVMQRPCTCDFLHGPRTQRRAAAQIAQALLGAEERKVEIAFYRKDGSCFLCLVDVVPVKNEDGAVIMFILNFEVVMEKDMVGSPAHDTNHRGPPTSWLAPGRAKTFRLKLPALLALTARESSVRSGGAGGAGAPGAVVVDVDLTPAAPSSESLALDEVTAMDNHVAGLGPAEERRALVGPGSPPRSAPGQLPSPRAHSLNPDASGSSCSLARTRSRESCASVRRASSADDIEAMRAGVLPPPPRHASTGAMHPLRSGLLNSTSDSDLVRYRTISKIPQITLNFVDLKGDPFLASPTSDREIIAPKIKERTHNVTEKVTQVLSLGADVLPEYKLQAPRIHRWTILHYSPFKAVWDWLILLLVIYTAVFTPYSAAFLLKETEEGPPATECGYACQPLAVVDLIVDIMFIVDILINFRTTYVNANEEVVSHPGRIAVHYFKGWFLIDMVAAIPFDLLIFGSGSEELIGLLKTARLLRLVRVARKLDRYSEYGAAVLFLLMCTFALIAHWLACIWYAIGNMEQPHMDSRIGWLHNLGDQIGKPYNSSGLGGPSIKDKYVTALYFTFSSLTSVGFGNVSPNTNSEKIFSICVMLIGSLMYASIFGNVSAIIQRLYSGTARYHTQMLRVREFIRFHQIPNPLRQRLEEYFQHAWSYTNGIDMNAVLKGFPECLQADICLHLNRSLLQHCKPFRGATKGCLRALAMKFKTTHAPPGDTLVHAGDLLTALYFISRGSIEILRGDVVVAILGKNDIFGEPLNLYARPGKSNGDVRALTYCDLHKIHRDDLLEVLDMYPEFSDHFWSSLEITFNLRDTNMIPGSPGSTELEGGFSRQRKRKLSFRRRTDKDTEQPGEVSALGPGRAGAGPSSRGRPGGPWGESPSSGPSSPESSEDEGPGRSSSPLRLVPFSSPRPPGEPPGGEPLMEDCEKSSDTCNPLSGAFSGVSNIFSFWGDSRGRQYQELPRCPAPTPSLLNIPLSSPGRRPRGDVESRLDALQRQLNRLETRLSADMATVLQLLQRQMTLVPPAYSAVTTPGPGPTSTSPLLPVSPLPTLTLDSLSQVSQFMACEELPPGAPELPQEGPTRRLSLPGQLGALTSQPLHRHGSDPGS
Test: Test Example 5: hERG inhibition, automated patch clamp in hERG-expressing CHO cells
Details: read-out: Test Example 5 hERG IC50, QPatch, room temperature

In the case of CC1(C)Oc2ccc(NC(=O)c3ccc(C#N)cn3)cc2C2(COC(N)=N2)C12COC2 (centres unmarked) [Example 197], the IC50 is reported as > 10000 nM.
